The results in this text go back to US5430154A, “2-(4-piperidinyl)-1H-pyrido[4,3-b]-indol-1-ones and related compounds” (Hoechst-Roussel Pharmaceuticals Inc., priority 1993, dated 1995).

A word on the ED50: it is the dose at which the effect has come halfway, by size or by number of responders.

In experiment [1] the test system is apomorphine-induced climbing. The experiment can be described thus: climbing mice assay (antagonism of apomorphine-induced climbing; antipsychotic activity). The format is in vivo, CK-1 male mice. The note with it: Mus musculus, ip, read-out: Antipsychotic Activity ED50. Here is the method: The subject CK-1 male mice (23-27 grams) are group-housed under standard laboratory conditions. The mice are individually placed in wire mesh stick cages (4"×4" by 10") and are allowed one hour for adaptation and exploration of the new environment. […] For evaluation of climbing, 3 readings are taken at 10, 20 and 30 minutes after apomorphine administration according to the following scale: Mice consistently climbing before the injection of apormorphine are discarded. With full-developed apomorphine climbing, the animals are hanging onto the cage wails, rather motionless, over longer periods of time. By contrast, climbs due to mere motor stimulation usually only last a few seconds. The climbing scores are individually totaled (maximal score; 6 per mouse over 3 readings) and the total score of the control group (vehicle intraperitioneally-apomorphine subcutaneously) is set to 100%.

In experiment [2] the test system is apomorphine-induced stereotypy. Briefly: antagonism of apomorphine-induced stereotypy. The format is in vivo, male Wistar rats. As to conditions: apomorphine 1.5 mg/kg s.c., rats. As for the experimental part:
Antagonism of apomorphine-induced stereotypy is a property of many antipsychotics. […] Antagonism of apomorphine-induced stereotypy of the present 2-(4-piperidinyl)-1H-pyrido[4,3-b]indol-1-ones is determined by methods similar to those described by N. E. Anden, et al., J. Pharma.
Drugs are prepared using distilled water and, if insoluble, a suitable surfactant is added. The route of administration may be varied and the dosage volume is 10 ml/kg. For a primary screen, a group size of six is used. Drug is administered one hour prior to scoring and the animals are placed in individual clear plastic cages (24×14×13 cm). The control group receives vehicle. Apomorphine hydrochloride solution is prepared at a concentration of 1.5 mg/10 ml in a 0.03% ascorbic acid stock solution (30 mg of ascorbic acid in 100 ml of 1% saline) to increase the stability of the apomorphine hydrochloride while in solution. […] Fifty minutes after drug dosing, stereotypic behavior is noted. Stereotypic activity is defined as sniffing, licking or chewing behavior that occurs in a repetitive manner and is rated as follows: Constant sniffing, licking or chewing without interruption; the animal is considered protected if this behavior is interrupted.
The percent effectiveness of a drug is determined by the number of animals protected in each group.
A dose-response is run in the same manner as a primary screen except that a group size of 10 is used and the animals are dosed in a randomized manner. One group receives vehicle. ED50 for stereotypy are calculated by means of probit analysis.

The mark [3] stands for this setting: 30 min before apomorphine 1.5 mg/kg s.c., mice, linear regression.

Molecules are shown by their SMILES. Where two headings read alike, the source gives them in different places.

For `Cl.Cn1c2c(c3ccccc31)C(=O)N(C1CCN(Cc3ccccc3)CC1)CC2` [5-Methyl-2-[1-(phenylmethyl)-4-piperidinyl]-2,3,4,5-tetrahydro-1H-pyrido[4,3-b]-indole-1-one hydrochloride], in experiment [1] (setting [3]), the median effective dose (ED50) is 4.6 mg/kg. In experiment [2] (dose 24 mg/kg ip), the “% Inhibition of Apomorphine-Induced Stereotypy” value (“% Inhibition” for short) was 50%.
Turning to `CSc1ccc2c(c1)N(CCC1CCCCN1C)c1ccccc1S2` (stereo not drawn) [thioridazine], in experiment [1] (setting [3]), the ED50 stood at 3.6 mg/kg. In experiment [2] (dose 38 mg/kg ip), the “% Inhibition” value is 50%.
Consider `O=C(CCCN1CCC(O)(c2ccc(Cl)cc2)CC1)c1ccc(F)cc1` [haloperidol], for which the ED50 in experiment [1] came to 0.14 mg/kg. Moreover, the “% Inhibition” value in experiment [2] (dose 0.2 mg/kg ip) is 50%.
